Values quoted from earlier work, collected in patent US20110236881A1, “MODULATION OF INFLUENZA VIRUS” (priority 2008, published 2011).

Target: full-length M2 (Influenza A virus, UniProt P0DOF5)
Details: the protein binds a single drug molecule per tetramer

Sequence of full-length M2 (P0DOF5 whole entry): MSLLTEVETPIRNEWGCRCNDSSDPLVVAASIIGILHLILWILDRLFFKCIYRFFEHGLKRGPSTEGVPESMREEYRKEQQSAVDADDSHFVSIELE

NC12CC3CC(CC(C3)C1)C2 [amantadine]
cooperativity factor of inhibition of full-length M2: 1.0
